Several values for one entry are separate records, joined by “and”; a condition that tells them apart may be missing. Identical values can stand only once. Activity calls are given as the source filed them.
Target: T1, Heat shock factor protein 1 (Mus musculus, UniProt P38532)
T1 sequence (P38532 whole entry): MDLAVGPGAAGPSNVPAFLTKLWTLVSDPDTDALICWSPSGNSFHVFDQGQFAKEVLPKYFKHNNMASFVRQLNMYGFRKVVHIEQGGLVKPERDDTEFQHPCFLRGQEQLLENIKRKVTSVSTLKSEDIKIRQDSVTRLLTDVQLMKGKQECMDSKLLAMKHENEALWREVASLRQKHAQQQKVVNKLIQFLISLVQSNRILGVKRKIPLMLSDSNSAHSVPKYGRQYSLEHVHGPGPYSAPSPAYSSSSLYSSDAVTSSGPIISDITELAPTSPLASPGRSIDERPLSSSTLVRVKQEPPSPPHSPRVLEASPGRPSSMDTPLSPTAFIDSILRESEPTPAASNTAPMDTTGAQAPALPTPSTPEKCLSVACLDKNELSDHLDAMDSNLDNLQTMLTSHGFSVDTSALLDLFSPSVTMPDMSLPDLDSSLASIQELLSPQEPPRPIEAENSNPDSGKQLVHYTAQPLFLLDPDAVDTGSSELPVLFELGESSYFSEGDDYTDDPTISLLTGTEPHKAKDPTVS
Experiment: inhibition of MG132-induced HSE-luciferase signal, confirmation, cell-based, NIH3T3, luminescence, dose retest (AID 2382);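 also: NIH3T3 fibroblasts with HSF1-driven luciferase reporter stressed by proteasome inhibitor MG132; luminescence from HSF1-driven luciferase expression after 8 hours of MG132 stress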
Format: functional
Conditions: not given

Row | SMILES | EC50
1 | COc1cc(/C=N/NC(=O)c2cc(C)oc2C)ccc1O | > 195 µM (not active)

System: not listed separately
Experiment: Luminescence Cell-Based Dose Retest to Confirm Inhibitors of Cancer Stem Cells. [Related pubchem assays (depositor defined):AID2717, AID2721]
Format: functional
Conditions: Homo sapiens

Row | SMILES | AC50
2 | COc1cc(S(=O)(=O)N2CCCCCC2)c(OC)cc1Br | 1.01 µM (active)
3 | CN1CCN(S(=O)(=O)c2cccc(C(=O)Nc3cc(C(F)(F)F)ccc3N3CCCCC3)c2)CC1 | 2.5 µM (active)
4 | COC(=O)C1C(=O)C2=C(CC1C)NC(=O)CC2c1cccc(C)c1 (stereo not given) | > 195 µM (inactive)
5 | COc1ccc(-c2oc3ccc(N4CCOCC4)cc3c2C#CCO)cc1 | 3.96 µM (active)
6 | Cc1cccc(C(=O)N/N=C/c2ccc(OC3CSC3)cc2)c1 | 1.71 µM (active)
7 | C=C1/C(=C\C=C2/CCC[C@]3(C)[C@@H]([C@H](C)/C=C/[C@@H](O)C4CC4)CC[C@@H]23)C[C@@H](O)C[C@@H]1O [CALCIPOTRIENE] | 8.81 µM (active)

Target: T2, Rac GTPase-activating protein 1 (Homo sapiens, UniProt Q9H0H5)
T2 sequence (Q9H0H5 whole entry): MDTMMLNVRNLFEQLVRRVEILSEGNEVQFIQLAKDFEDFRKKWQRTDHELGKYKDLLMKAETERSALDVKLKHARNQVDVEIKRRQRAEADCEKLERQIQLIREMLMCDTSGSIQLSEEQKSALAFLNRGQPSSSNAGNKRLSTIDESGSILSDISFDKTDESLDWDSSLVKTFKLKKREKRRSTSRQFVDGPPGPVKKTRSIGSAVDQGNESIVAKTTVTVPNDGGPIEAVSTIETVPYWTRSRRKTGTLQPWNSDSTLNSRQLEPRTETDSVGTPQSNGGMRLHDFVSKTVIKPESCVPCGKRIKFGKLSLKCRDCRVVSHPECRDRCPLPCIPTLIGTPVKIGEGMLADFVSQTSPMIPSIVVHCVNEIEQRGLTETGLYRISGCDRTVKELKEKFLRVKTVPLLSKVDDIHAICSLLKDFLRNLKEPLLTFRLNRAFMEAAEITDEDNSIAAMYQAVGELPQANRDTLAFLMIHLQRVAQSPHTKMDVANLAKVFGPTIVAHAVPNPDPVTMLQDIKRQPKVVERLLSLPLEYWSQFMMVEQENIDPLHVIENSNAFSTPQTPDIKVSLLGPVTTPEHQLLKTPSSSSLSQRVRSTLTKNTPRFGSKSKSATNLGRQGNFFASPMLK
Experiment: MgcRacGAP GTPase-activating activity inhibitors, confirmation, biochemical, ADP Hunter fluorescence, primary and confirmatory (AID 624330)
Format: functional
Conditions: not given

Row | SMILES | IC50
8 | COc1cc(/C=N/NC(=O)c2cc(C)oc2C)ccc1O | 37.6 µM (active)

Target: Cytochrome P450 2D6 (Homo sapiens, UniProt P10635);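 also: CYP2D6 member of a cytochrome P450 panel assay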
Sequence (P10635 whole entry): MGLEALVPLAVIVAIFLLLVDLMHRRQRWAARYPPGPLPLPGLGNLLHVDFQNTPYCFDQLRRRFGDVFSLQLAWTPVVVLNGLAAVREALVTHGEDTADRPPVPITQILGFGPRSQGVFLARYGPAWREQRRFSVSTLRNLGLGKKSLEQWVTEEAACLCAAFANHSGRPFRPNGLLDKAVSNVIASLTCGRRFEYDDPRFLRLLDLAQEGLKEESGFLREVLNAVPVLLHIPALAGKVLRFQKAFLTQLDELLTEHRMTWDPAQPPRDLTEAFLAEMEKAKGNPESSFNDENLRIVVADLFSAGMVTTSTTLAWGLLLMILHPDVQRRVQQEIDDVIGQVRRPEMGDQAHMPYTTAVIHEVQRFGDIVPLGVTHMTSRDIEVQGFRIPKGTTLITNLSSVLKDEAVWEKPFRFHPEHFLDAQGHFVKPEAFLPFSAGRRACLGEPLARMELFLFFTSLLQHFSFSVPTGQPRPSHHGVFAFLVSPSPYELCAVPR
Conditions: not given

Row | SMILES | AC50
9 | O=C1Nc2ccccc2C1=Nc1sc2c(c1C(=O)NCCc1ccccc1)CCCC2 | 4.47 µM (inconclusive)
10 | COc1ccc(CNC(=O)Cc2csc(Nc3nc(S)nc4ccccc34)n2)cc1 | 0.447 µM (inconclusive)
11 | Cc1noc(C)c1-c1ccc2ncnc(NCCN3CCOCC3)c2c1 | 31.6 µM (inconclusive)
12 | CCN(CC)C1=NC(=[N+](CC)CC)c2ccccc21 | 14.1 µM (inconclusive)
13 | CN(C)CCC[C@@]1(c2ccc(F)cc2)OCc2cc(C#N)ccc21 [ESCITALOPRAM] | 39.8 µM (inconclusive) and 12.6 µM (inconclusive)

Target: T3, Cytochrome P450 1A2 (Homo sapiens, UniProt P05177);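 also: PubChem cytochrome P450 panel assay, CYP1A2 panel member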
T3 sequence (P05177 whole entry): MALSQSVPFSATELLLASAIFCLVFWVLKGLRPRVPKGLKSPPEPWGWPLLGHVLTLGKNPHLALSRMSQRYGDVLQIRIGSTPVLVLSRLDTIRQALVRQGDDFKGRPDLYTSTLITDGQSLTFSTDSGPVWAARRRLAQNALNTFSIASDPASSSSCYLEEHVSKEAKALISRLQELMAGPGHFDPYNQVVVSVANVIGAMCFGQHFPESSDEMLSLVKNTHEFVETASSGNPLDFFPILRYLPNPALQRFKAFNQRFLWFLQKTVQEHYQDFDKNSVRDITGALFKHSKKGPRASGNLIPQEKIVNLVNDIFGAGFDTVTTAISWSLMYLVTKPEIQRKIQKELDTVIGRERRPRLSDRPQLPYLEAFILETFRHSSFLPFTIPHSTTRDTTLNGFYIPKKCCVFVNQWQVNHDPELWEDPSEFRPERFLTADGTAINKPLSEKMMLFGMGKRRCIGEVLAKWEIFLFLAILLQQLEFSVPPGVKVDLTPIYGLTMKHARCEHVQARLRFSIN
Conditions: not given

Row | SMILES | AC50
14 | COc1ccc(Oc2ncc3nc(-c4cccc(C#N)c4)c(=O)n(CCC#N)c3n2)cc1 | 25.1 µM (inconclusive)
15 | CCC(CC)C(=O)Nc1cccc(/C(C)=N/NC(=O)c2c(Br)cnn2C)c1 | 12.6 µM (inconclusive)

Target: Cytochrome P450 3A4 (Homo sapiens, UniProt P08684);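 also: CYP3A4 tested as one member of a cytochrome P450 panel screen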
Sequence (P08684 whole entry): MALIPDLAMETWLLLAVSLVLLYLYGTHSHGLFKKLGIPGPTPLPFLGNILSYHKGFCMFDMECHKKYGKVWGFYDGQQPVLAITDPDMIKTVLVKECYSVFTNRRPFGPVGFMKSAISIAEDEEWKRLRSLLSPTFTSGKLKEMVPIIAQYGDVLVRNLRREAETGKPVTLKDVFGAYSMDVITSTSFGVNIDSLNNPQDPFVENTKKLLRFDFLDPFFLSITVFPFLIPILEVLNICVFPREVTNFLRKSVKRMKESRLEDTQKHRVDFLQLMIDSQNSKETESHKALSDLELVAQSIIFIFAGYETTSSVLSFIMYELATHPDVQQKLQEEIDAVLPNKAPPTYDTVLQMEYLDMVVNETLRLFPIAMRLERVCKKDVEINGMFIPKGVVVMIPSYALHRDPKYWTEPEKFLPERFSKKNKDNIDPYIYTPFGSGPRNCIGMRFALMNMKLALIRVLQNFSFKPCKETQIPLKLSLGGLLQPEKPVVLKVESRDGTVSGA
Conditions: not given

Row | SMILES | AC50
16 | C[C@H](C(=O)c1ccccc1)[C@@H](c1ccccc1)N1CCOCC1 | 0.501 µM (inconclusive)
17 | Cc1onc(-c2c(Cl)cccc2Cl)c1C(=O)Nc1ccc2c(c1)OCO2 | 1 µM (inconclusive)
18 | COc1ccc2c(c1)c(=O)oc1c(C)c(OCC(=O)N3CCc4ccccc4C3)ccc12 | 3.16 µM (inconclusive)
19 | O=[N+]([O-])c1ccc(N2CCN(Cc3ccccc3)CC2)c(S(=O)(=O)N2CCOCC2)c1 | 12.6 µM (inconclusive)
20 | COc1ccc(Oc2ncc3nc(CCc4ccccc4)c(=O)n(C)c3n2)cc1 | 7.94 µM (inconclusive)
21 | COc1ccccc1-c1cc(NCc2cccs2)ncn1 | 31.6 µM (inconclusive)
22 | O=S(=O)(c1ccc(F)cc1)N1CCCC(CO)C1 (stereo not given) | 25.1 µM (inconclusive)
23 | CCN(CC)S(=O)(=O)c1ccc(OC)c(NC(=O)CSc2ccccc2)c1 | 31.6 µM (inconclusive)

Target: Cytochrome P450 2C9 (Homo sapiens, UniProt P11712)
Sequence (P11712 whole entry): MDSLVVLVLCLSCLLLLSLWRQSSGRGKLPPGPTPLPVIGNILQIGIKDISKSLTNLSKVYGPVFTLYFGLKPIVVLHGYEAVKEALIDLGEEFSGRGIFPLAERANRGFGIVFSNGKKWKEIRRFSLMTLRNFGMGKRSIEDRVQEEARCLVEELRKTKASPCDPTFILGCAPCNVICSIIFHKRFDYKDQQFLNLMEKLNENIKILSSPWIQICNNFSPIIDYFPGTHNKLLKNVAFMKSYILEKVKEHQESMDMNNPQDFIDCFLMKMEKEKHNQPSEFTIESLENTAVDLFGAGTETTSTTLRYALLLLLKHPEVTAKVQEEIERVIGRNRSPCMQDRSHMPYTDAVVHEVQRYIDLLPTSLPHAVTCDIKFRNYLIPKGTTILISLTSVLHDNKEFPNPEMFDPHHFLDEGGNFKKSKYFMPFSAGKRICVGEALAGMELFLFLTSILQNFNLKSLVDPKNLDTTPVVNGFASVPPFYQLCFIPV
Conditions: not given

Row | SMILES | AC50
24 | COc1ccc(Oc2ncc3nc(-c4cccc(C#N)c4)c(=O)n(CCC#N)c3n2)cc1 | 25.1 µM (inconclusive)
25 | COC(=O)C1C(=O)C2=C(CC1C)NC(=O)CC2c1cccc(C)c1 (stereo not given) | 15.8 µM (inconclusive)
26 | COc1ccc(-n2c(C)nnc2O)cc1OC | 1.78 µM (inconclusive)
27 | O=C1CN=C(c2cccs2)c2c(sc3c2CCCC3)N1 | 35.5 µM (inconclusive)
28 | COc1ccc(-c2nc3cnc(N4CCNCC4)nc3n(Cc3cccs3)c2=O)cc1 | 39.8 µM (inconclusive)
29 | CSc1ccc2nnc(-c3cccc(F)c3)n2n1 | 39.8 µM (inconclusive)
30 | CCC(CC)C(=O)Nc1cccc(/C(C)=N/NC(=O)c2c(Br)cnn2C)c1 | 8.91 µM (inconclusive)

— ChEMBL document CHEMBL1201862, “PubChem BioAssay data set” (2004)
